Data reported in patent US12029739B2, “SHP2 inhibitor and use thereof” (KANAPH THERAPEUTICS INC., priority 2021, dated 2024).
Where two headings read alike, the source gives them in different places.

Tests used:
SHP2 (full length) = biological target: T1, SHP2 (full length) (Homo sapiens, UniProt Q06124); assay: Phosphatase assay (PTPase assay) with DiFMUP substrate; format: biochemical; conditions: SHP2 activated with SHP2 activating peptide; DiFMUP 80 μM, 2 hours; fluorescence; read-out: IC50 (PTPase aS say)
T1 construct: SHP2 (full length, diluted to 100 pM final concentration in reaction buffer, BPS bioscience, US); purchased BPS bioscience, US
T1 sequence (Q06124 1-593): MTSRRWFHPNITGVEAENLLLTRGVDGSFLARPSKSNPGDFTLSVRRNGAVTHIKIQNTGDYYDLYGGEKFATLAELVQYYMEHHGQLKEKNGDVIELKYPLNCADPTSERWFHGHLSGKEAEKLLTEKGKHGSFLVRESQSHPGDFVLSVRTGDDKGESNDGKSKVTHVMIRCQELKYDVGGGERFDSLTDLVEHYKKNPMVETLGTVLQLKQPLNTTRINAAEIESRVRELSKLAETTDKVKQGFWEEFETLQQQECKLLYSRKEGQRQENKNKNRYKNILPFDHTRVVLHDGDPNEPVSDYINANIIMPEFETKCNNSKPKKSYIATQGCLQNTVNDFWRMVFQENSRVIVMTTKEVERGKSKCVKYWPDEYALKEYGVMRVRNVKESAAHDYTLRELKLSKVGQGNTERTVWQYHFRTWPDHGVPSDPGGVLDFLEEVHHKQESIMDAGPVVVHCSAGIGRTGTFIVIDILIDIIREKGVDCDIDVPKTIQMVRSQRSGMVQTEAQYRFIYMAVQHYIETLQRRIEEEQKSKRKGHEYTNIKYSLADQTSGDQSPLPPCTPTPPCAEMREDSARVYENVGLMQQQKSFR

[1] = system: phospho-ERK in MIA PaCa2 or H358 cells; assay: Phospho-ERK assay (AlphaLisa); format: cell-based; conditions: MIA PaCa2 or H358 cells, compound incubated 1.5 hours, read-out: IC50 (p-ERK)

| Structure (SMILES) | IC50 (SHP2 (full length)) [nM] | IC50 ([1]; 1.5 h) [nM] | IC50 [1] [nM] |
| --- | --- | --- | --- |
| C[C@@H]1OCC2(CCN(c3cnc(Sc4ccc5ncn(Cc6ccccn6)c(=O)c5c4Cl)cn3)CC2)[C@@H]1N [Example 88, 6-((5-((3S,4S)-4-amino-3-methyl-2-oxa-8-azaspiro[4.5]decan-8-yl)pyrazin-2-yl)thio)-5-chloro-3-(pyridin-2-ylmethyl)quinazolin-4(3H)-one] | < 3 | < 45 |  |
| C[C@@H]1OCC2(CCN(c3cnc(Sc4ccc5nc(Oc6ccccc6)[nH]c5c4Cl)cn3)CC2)[C@@H]1N [Example 125] | < 3 |  | < 45 |
| COCCn1cnc2ccc(Sc3cnc(N4CCC5(CC4)Cc4ncsc4C5N)cn3)c(Cl)c2c1=O (stereo in doubt) [Example 145, 6-[5-[(6R)-6-aminospiro[4,6-dihydrocyclopenta[d]thiazole-5,4′-piperidin]-1′-yl]pyrazin-2-yl]sulfanyl-5-chloro-3-(2-methoxyethyl)quinazolin-4-one] | 3 to 100 |  | 45 to 1500 |
| C[C@@H]1OCC2(CCN(c3cnc(Sc4ccc5nn(Cc6ccccc6)cc5c4Cl)cn3)CC2)[C@@H]1N [Example 49, (3S,4S)-8-(5-((2-benzyl-4-chloro-2H-indazol-5-yl)thio)pyrazin-2-yl)-3-methyl-2-oxa-8-azaspiro[4.5]decan-4-amine] | 3 to 100 | > 1500 |  |
| C[C@@H]1OCC2(CCN(c3cnc(Sc4ccc5ncn(Cc6cccc(F)c6)c(=O)c5c4Cl)cn3)CC2)[C@@H]1N [Example 33, 6-((5-((3S,4S)-4-amino-3-methyl-2-oxa-8-azaspiro[4.5]decan-8-yl)pyrazin-2-yl)thio)-5-chloro-3-(3-fluorobenzyl)quinazolin-4(3H)-one] | < 3 | 45 to 1500 |  |
| CC(C)(O)Cn1cnc2ccc(Sc3ncc(N4CCC5(CC4)Cc4ncsc4[C@H]5N)nc3N)c(Cl)c2c1=O [Example 166, (S)-6-((3-amino-5-(6-amino-4,6-dihydrospiro[cyclopenta[d]thiazole-5,4′-piperidin]-1′-yl)pyrazin-2-yl)thio)-5-chloro-3-(2-hydroxy-2-methylpropyl)quinazolin-4(3H)-one] | < 3 | < 45 |  |
| C[C@@H]1OCC2(CCN(c3cnc(Sc4ccc5ncn(CCS(C)(=O)=O)c(=O)c5c4Cl)cn3)CC2)[C@@H]1N [Example 82, 6-((5-((3S,4S)-4-amino-3-methyl-2-oxa-8-azaspiro[4.5]decan-8-yl)pyrazin-2-yl)thio)-5-chloro-3-(2-(methylsulfonyl)ethyl)quinazolin-4(3H)-one] | < 3 | < 45 |  |
| C[C@@H]1OCC2(CCN(c3cnc(Sc4ccc5ncn(CCN6CCOC6=O)c(=O)c5c4Cl)cn3)CC2)[C@@H]1N [Example 114] | < 3 | < 45 |  |
| C[C@@H]1OCC2(CCN(c3cnc(Sc4ccc5ncn(Cc6ccncn6)c(=O)c5c4Cl)cn3)CC2)[C@@H]1N [Example 45, 6-((5-((3S,4S)-4-amino-3-methyl-2-oxa-8-azaspiro[4.5]decan-8-yl)pyrazin-2-yl)thio)-5-chloro-3-(pyrimidin-4-ylmethyl)quinazolin-4(3H)-one] | < 3 | < 45 |  |
| CC1(N)CCN(c2cnc(Sc3ccc4ncn(-c5ccccc5)c(=O)c4c3Cl)cn2)CC1 [Example 28, 6-((5-(4-amino-4-methylpiperidin-1-yl)pyrazin-2-yl)thio)-5-chloro-3-phenylquinazolin-4(3H)-one] | 3 to 100 | 45 to 1500 |  |
| COCCn1cnc2ccc(Sc3nc(C(N)=O)c(N4CCC5(CC4)CO[C@@H](C)[C@H]5N)nc3N)c(Cl)c2c1=O [Example 154, 5-amino-3-[(3S,4S)-4-amino-3-methyl-2-oxa-8-azaspiro[4.5]decan-8-yl]-6-[5-chloro-3-(2-methoxyethyl)-4-oxo-quinazolin-6-yl]sulfanyl-pyrazine-2-carboxamide] | 3 to 100 | 45 to 1500 |  |
| Cc1nc2ccc(Sc3cnc(N4CCC(C)(CN)CC4)cn3)c(Cl)c2c(=O)[nH]1 [Example 22, 6-((5-(4-(aminomethyl)-4-methylpiperidin-1-yl)pyrazin-2-yl)thio)-5-chloro-2-methylquinazolin-4(3H)-one] | 3 to 100 | 45 to 1500 |  |
| COCCn1cnc2ccc(Sc3cnc(N4CCC5(CC4)Cc4scnc4[C@@H]5N)cn3)c(Cl)c2c1=O [Example 150, 6-[5-[(4R)-4-aminospiro[4,6-dihydrocyclopenta[d]thiazole-5,4′-piperidin]-1′-yl]pyrazin-2-yl]sulfanyl-5-chloro-3-(2-methoxyethyl)quinazolin-4-one] | < 3 | 45 to 1500 |  |
| Cc1nc2ccc(Sc3cnc(N4CCC(C)(N)CC4)cn3)c(Cl)c2s1 [Example 24, 1-(5-((7-chloro-2-methylbenzo[d]thiazol-6-yl)thio)pyrazin-2-yl)-4-methylpiperidin-4-amine] | 3 to 100 | > 1500 |  |
| C[C@@H]1OCC2(CCN(c3cnc(Sc4ccc5ncn(CC6CCOC6)c(=O)c5c4Cl)cn3)CC2)[C@@H]1N (stereo partly drawn) [Example 61, 6-((5-((3S,4S)-4-amino-3-methyl-2-oxa-8-azaspiro[4.5]decan-8-yl)pyrazin-2-yl)thio)-5-chloro-3-((tetrahydrofuran-3-yl)methyl)quinazolin-4(3H)-one] | < 3 | < 45 |  |

Further lines, with some results ahead:

| IC50 (SHP2 (full length)) [nM] | IC50 ([1]; 1.5 h) [nM] | Structure (SMILES) | IC50 [1] [nM] |
| --- | --- | --- | --- |
| 3 to 100 | < 45 | C[C@@H]1OCC2(CCN(c3cnc(Sc4ccc5ncn(CCOC(F)(F)F)c(=O)c5c4Cl)cn3)CC2)[C@@H]1N [Example 96, 6-((5-((3S,4S)-4-amino-3-methyl-2-oxa-8-azaspiro[4.5]decan-8-yl)pyrazin-2-yl)thio)-5-chloro-3-(2-(trifluoromethoxy)ethyl)quinazolin-4(3H)-one] |  |
| > 100 | > 1500 | Cn1c(N2CCC(C)(N)CC2)nc(N)c(Sc2cccc(C(=O)O)c2Cl)c1=O [Example 27, 3-((4-amino-2-(4-amino-4-methylpiperidin-1-yl)-1-methyl-6-oxo-1,6-dihydropyrimidin-5-yl)thio)-2-chlorobenzoic acid] |  |
| < 3 | < 45 | CC(C)(O)Cn1cnc2ccc(Sc3cnc(N4CCC5(CC4)Cc4ncsc4[C@H]5N)cn3)c(Cl)c2c1=O [Example 147, 6-[5-[(6S)-6-aminospiro[4,6-dihydrocyclopenta[d]thiazole-5,4′piperidin]1′-yl]pyrazin-2-yl]sulfanyl-5-chloro-3-(2-hydroxy-2-methyl-propyl)quinazolin-4-one] |  |
| > 100 | > 1500 | Cn1c(N2CCN(CCN)CC2)nc(N)c(-c2cccc(Cl)c2Cl)c1=O [Example 195] |  |
| < 3 | < 45 | C[C@@H]1OCC2(CCN(c3cnc(Sc4ccc5nc(Cc6cnccn6)[nH]c5c4Cl)cn3)CC2)[C@@H]1N [Example 136, (3S,4S)-8-(5-((7-chloro-2-(pyrazin-2-ylmethyl)-1H-benzo[d]imidazol-6-yl)thio)pyrazin-2-yl)-3-methyl-2-oxa-8-azaspiro[4.5]decan-4-amine] |  |
| < 3 | < 45 | C[C@@H]1OCC2(CCN(c3cnc(Sc4ccc5ncn(Cc6cccc(O)c6)c(=O)c5c4Cl)cn3)CC2)[C@@H]1N [Example 66, 6-((5-((3S,4S)-4-amino-3-methyl-2-oxa-8-azaspiro[4.5]decan-8-yl)pyrazin-2-yl)thio)-5-chloro-3-(3-hydroxybenzyl)quinazolin-4(3H)-one] |  |
| 3 to 100 | > 1500 | CNS(=O)(=O)c1cccc(Sc2cnc(N3CCC(C)(N)CC3)cn2)c1Cl [Example 8, 3-((5-(4-amino-4-methylpiperidin-1-yl)pyrazin-2-yl)thio)-2-chloro-N-methylbenzenesulfonamide] |  |
| < 3 | < 45 | C[C@@H]1OCC2(CCN(c3cnc(Sc4ccc5ncn(Cc6nccs6)c(=O)c5c4Cl)cn3)CC2)[C@@H]1N [Example 35, 6-((5-((3S,4S)-4-amino-3-methyl-2-oxa-8-azaspiro[4.5]decan-8-yl)pyrazin-2-yl)thio)-5-chloro-3-(thiazol-2-ylmethyl)quinazolin-4(3H)-one] |  |
| < 3 | < 45 | COc1ccc(Cn2cnc3ccc(Sc4cnc(N5CCC6(CC5)CO[C@@H](C)[C@H]6N)cn4)c(Cl)c3c2=O)c(F)c1 [Example 72, 6-((5-((3S,4S)-4-amino-3-methyl-2-oxa-8-azaspiro[4.5]decan-8-yl)pyrazin-2-yl)thio)-5-chloro-3-(2-fluoro-4-methoxybenzyl)quinazolin-4(3H)-one] |  |
| < 3 | < 45 | C[C@@H]1OCC2(CCN(c3cnc(Sc4ccc5ncn(CCCO)c(=O)c5c4Cl)cn3)CC2)[C@@H]1N [Example 63, 6-((5-((3S,4S)-4-amino-3-methyl-2-oxa-8-azaspiro[4.5]decan-8-yl)pyrazin-2-yl)thio)-5-chloro-3-(3-hydroxypropyl)quinazolin-4(3H)-one] |  |
| 3 to 100 | 45 to 1500 | C[C@@H]1OCC2(CCN(c3cnc(Sc4ccc5nc(Cc6cccnc6)[nH]c5c4Cl)cn3)CC2)[C@@H]1N [Example 137, (3S,4S)-8-(5-((7-chloro-2-(pyridin-3-ylmethyl)-1H-benzo[d]imidazol-6-yl)thio)pyrazin-2-yl)-3-methyl-2-oxa-8-azaspiro[4.5]decan-4-amine] |  |
